Measurements reported in patent US20190255022A1, “WOUND-HEALING AGENT” (NIPPON CHEMIPHAR CO., LTD., priority 2016, published 2019).
Marks after values point to notes of the source that are not given here.

Test system: wound in diabetes mouse (db/db mouse) model
Assay: Effect of compound A on wound in diabetes mouse (db/db mouse) model
Type: in vivo
Settings: for wound area ratio: 0.05 mL once a day, mean±standard error, n=8
Procedure: The compound A was weighed in the required amount, and polyethylene glycol 400 (PEG400) was added to the compound to prepare liquids having final concentrations of the compound of 0.001, 0.01, and 0.1 w/v %. In order to prepare ointments having final concentrations of the compound of 0.0005, 0.005, and 0.05 w/w %, PEG4000 melted by warming at 65° C. was added to the liquids, and the liquids were stirred until they solidified at room temperature to prepare ointments having concentrations of the compound of 0.0005, 0.005, and 0.05 w/w %.
Diabetes mice (db/db mice) were anesthetized with isoflurane, and a 1.5-cm square of skin including the back median line as the center axis of each mouse was removed with ophthalmic scissors. A polyurethane film was stuck so as to cover the skin-lacking wound part and surrounding parts to prepare the wound.
The administration was performed once a day at a volume of 0.05 mL. As for the administration method, the administration was performed with a disposable polypropylene injection syringe attached to a 23G needle by inserting the needle into a gap between the wound and the polyurethane film covering the wound part. On the day when the wound was produced and the days when the wound area was measured, the compound was administered to the wound part by using a disposable polypropylene injection syringe attached to a 23G needle before sticking the polyurethane film.
On days 14 to 20 of the administration (the day on which the administration was started is day 1 of the administration), the administration was performed by peeling off the polyurethane film under isoflurane anesthesia, cleaning the wound with absorbent cotton containing physiological saline, administering the ointment with a disposable polypropylene injection syringe, and then the polyurethane film was stuck on again.
On days 1, 4, 8, 12, 16, and 21 of the administration, the wound part was traced. That is, after the polyurethane film was removed (in the case of the day 1 of the administration, before the administration and sticking of the film), a plastic sheet was placed on the wound part, the contour of the wound part was traced on the plastic sheet (tracing was performed by using a felt pen so that the external periphery of the wound part would coincide with the internal periphery of the line drawn with the felt pen), and a copy of the sheet on which tracing was performed was used as the source of raw data. The area of the inside of the traced line (mm^2) was measured once using an area-line meter (PLANIX EX, Tamaya Technics Inc.) on the copy of the sheet on which tracing was performed. The results are expressed as ratio of change (%) calculated from the wound area (mm^2) of each measurement day, and the wound area (mm^2) of the day 1 of the wound creation (before administration).
Significant difference test was performed by using a commercial statistical analysis program (SAS System, SAS Institute Japan, Inc.). Statistical significance levels lower than 5% were considered to be significant, and the results are indicated as those of the level lower than 5% (*; p<0.05) and those of the level lower than 1% (**; p<0.01).
As for the test method, the multiple comparison of Dunnett's method was used for the comparison between the vehicle-administered group and compound A-administered groups.

In the case of `Cc1cc2c(CCc3sc(-c4ccc(C(F)(F)F)cc4)nc3C(C)C)noc2cc1OCC(=O)O` [compound A, [3-[2-[4-isopropyl-2-(4-trifluoromethyl)phenyl-5-thiazolyl]ethyl]-5-methyl-1,2-benzisoxazol-6-yl]oxyacetic acid], the wound area ratio (0.0005% compound A ointment, day 1 of administration) is reported as 100.0 ± 0.0%, the wound area ratio (0.0005% compound A ointment, day 4 of administration) is reported as 96.9 ± 1.7% and the wound area ratio (0.0005% compound A ointment, day 8 of administration) is reported as 95.2 ± 2.4%. For the same compound, the wound area ratio (0.0005% compound A ointment, day 12 of administration) was 82.9 ± 2.7%, the wound area ratio (0.0005% compound A ointment, day 16 of administration) was 73.4 ± 2.7% and the wound area ratio (0.0005% compound A ointment, day 21 of administration) was 67.6 ± 3.8%. The wound area ratio (0.005% compound A ointment, day 1 of administration) was 100.0 ± 0.0%, the wound area ratio (0.005% compound A ointment, day 4 of administration) was 97.2 ± 2.4% and the wound area ratio (0.005% compound A ointment, day 8 of administration) was 95.0 ± 2.2%. It also gave a wound area ratio (0.005% compound A ointment, day 12 of administration) of 84.1 ± 1.6%, a wound area ratio (0.005% compound A ointment, day 16 of administration) of 72.1 ± 1.7% and a wound area ratio (0.005% compound A ointment, day 21 of administration) of 69.1 ± 3.0%. The wound area ratio (0.05% compound A ointment, day 1 of administration) was 100.0 ± 0.0%, the wound area ratio (0.05% compound A ointment, day 4 of administration) was 96.0 ± 2.1% and the wound area ratio (0.05% compound A ointment, day 8 of administration) was 90.3 ± 2.6* %. For the same compound, the wound area ratio (0.05% compound A ointment, day 12 of administration) was 78.6 ± 1.6** %, the wound area ratio (0.05% compound A ointment, day 16 of administration) was 69.2 ± 2.1% and the wound area ratio (0.05% compound A ointment, day 21 of administration) was 65.5 ± 2.1%. For the same compound, the “wound area compared with the vehicle-administered group” value (0.05% compound A-administered group, day 8 and day 12 of the administration) was “significantly smaller”.
